Laboratory results from patent US20050239891A1, “Use of citrulline within the framework of intestinal insufficiency” (priority 2003, published 2005).

What was measured:
[1] = system: rats that have undergone an intestinal resection (short-bowel syndrome model); experiment: Short-bowel syndrome model: enteral nutrition supplemented with citrulline or arginine after intestinal resection; format: in vivo, Wistar rats; settings: for weight gain: resected rats (approx. 80% of small intestine), after 10 days of enteral nutrition, L-citrulline 1 g/kg/day or L-arginine 0.994 g/kg/day, AANE approx. 15 g, SHAM approx. 21 g (FIG. 1)
From the text: The rat was chosen as model to evaluate the effect of supplementation with citrulline within the framework of an intestinal insufficiency and in particular within the framework of the short-bowel syndrome.
24 Wistar rats weighing approximately 220-230 g were used. They were acclimatized in metabolic cages for 5 days before being operated on; during this period they had free access to water and standard laboratory food.
The intakes of L-arginine and L-citrulline correspond to those used in humans taking account of the difference in metabolic rate between the two species (rate approximately 10 times higher in the rat).
Enteral nutrition was carried out for 10 days continuously by the insertion of a gastric probe. The nitrogen intake was 2 g/kg/day and the calorie intake 290 kcal/kg/day. The food rations were rendered isonitrogenous by intake of a mixture of non-essential amino acids (Gly, Ala, Ser, His, Pro, Asn) (Sigma-Aldrich).
Three types of measurements were carried out in particular: a daily measurement of the weight of the animals, a measurement of the concentration of arginine in the plasma at the end of the experiment by ion-exchange chromatography using a JEOL device and a daily monitoring of the cumulative nitrogen balance by adding up the daily differences between the quantity of nitrogen absorbed and the quantity of nitrogen evacuated in the urine by pyroluminescence using an ANTEK apparatus.

[2] = Plasma amino acid concentrations in malnourished aged rats after renutrition; format: in vivo, Sprague-Dawley rats; settings: male, Sprague-Dawley, rat, plasma, oral; elderly malnourished rats, diet enriched with L-citrulline 5 g/kg/d for a week; average ± SDM; p<0.05 vs AL, R and AANE
Procedure: (§1) Male Sprague-Dawley rats (Charles River Laboratories, L'Arbresles, France) aged 19 months were placed in individual cages, in a thermostatically controlled ambience (23°±1° C.), and subjected to a 12-hour light-darkness cycle (darkness from 08.00 hours to 20.00 hours). Their acclimatization was carried out over 2 weeks, during which their spontaneous food consumption was measured. They were fed a standard diet (A04, UAR, Villemoisson-sur-Orge, France) containing 17% proteins, 3% lipids, 59% carbohydrates and 21% water, fibres, vitamins and minerals. The average food intake during this period is 34.4 g/day.
(§2) After the acclimatization period, the rats were divided into 4 groups (cf. FIG. 5): a control group comprising rats (n=10) fed ad libitum (AL) for 12 weeks and 3 other groups subjected to a food restriction during the same period, i.e. fed with only 50% of the spontaneous ingesta (i.e. 17.2 g), with the standard diet (UAR A04).
(§3) At the end of the restriction period, the animals (n=10) in one group were […] sacrificed (group R) and the rats of the two remaining groups were fed for a week with 90% of the spontaneous ingesta (i.e. 30.9 g), either on a diet enriched with non-essential amino acids (AANE group: alanine, asparagine, glycine, serine, histidine, and proline supplied in equimolar fashion) or on a diet enriched with L-citrulline (5 g/kg/d) (citrulline group). The intakes of the two groups were isonitrogenous and isocaloric. The limitation to 90% of the spontaneous intakes makes it possible to be certain that the rats consume all of the food offered to them (Walrand et al., 2000).
(§4) At the end of the experimental period, the rats, in post-absorptive situation, were anaesthetized with isoflurane (3%) and received a subcutaneous injection of ^13C-valine at variable times before being killed by decapitation.
(§5) The blood was collected on heparin and centrifuged (3500 rpm, at +4° C. for 15 minutes). […]
(§6) The results are presented in the form of an average ±standard deviation from the mean (SDM). The results are analyzed by an ANOVA followed by an a posteriori Duncan test. […]

[3] = system: elderly malnourished rats; experiment: as above; format: in vivo, Sprague-Dawley rats; settings: diet enriched with L-citrulline 5 g/kg/d for a week, average ± SDM, p<0.05 vs AL, R and AANE
Procedure: as §1, §2, §3, §4, §5, §6

[4] = system: elderly malnourished rats; experiment: Tibialis muscle amino acid content in malnourished aged rats after renutrition; format: in vivo, Sprague-Dawley rats; settings: diet enriched with L-citrulline 5 g/kg/d for a week, average ± SDM, p<0.05 vs AL, R and AANE
Procedure: as §1, §2, §3
The 2 Tibialis muscles (TIB) were removed in order to determine on the one hand the protein and amino acid content (right TIB) and on the other hand, the fractional (FSR) and absolute (ASR) protein synthesis rates (left TIB). […]
as §6

[5] = system: elderly malnourished rats; experiment: Tibialis muscle protein content (Gornall method) in malnourished aged rats after renutrition; format: in vivo, Sprague-Dawley rats; settings: after renutrition phase, L-citrulline 5 g/kg/d for a week; CIT vs AL, R, AANE, p<0.05 (FIG. 4)
Procedure: as §1
(§7) After the acclimatization period, the rats were divided into 4 groups (cf. FIG. 5): a control group comprising rats (n=10) fed ad libitum (AL) for 12 weeks and 3 other groups subjected to a food restriction during the same period, i.e. fed with only 50% of the spontaneous ingesta (i.e. 17.2 g), with the standard diet (UAR A04). […]
Determination of the protein content was carried out on the TIB. […] The proteins content of the TIB is measured by the Gornall method. […]
as §6

[6] = system: elderly malnourished rats; experiment: Tibialis muscle protein synthesis rate (13C-valine incorporation) in malnourished aged rats after renutrition; format: in vivo, Sprague-Dawley rats; settings: L-citrulline 5 g/kg/d for a week
Procedure: as §1, §7
The synthesis rate was determined on the TIB by the method of injecting a dose of a tracer amino acid charge. […]

Structure (SMILES) | weight gain [1] | concentration of arginine in the plasma ([1]; resected rats, after 10 days of supplemented enteral nutrition, compared with SHAM control (FIG. 2)) | cumulative nitrogen balance ([1]; resected rats, 10 days of supplemented enteral nutrition, compared with SHAM control (FIG. 3)) | concentration at 1 week [2] [µM] | Concentration of Ornithine in the plasma [3] [µmol/L] | concentration of arginine in the plasma [3] [µmol/L] | Concentration of Arginine in the TIB [4] [nmol/g] | Concentration of Citrulline in the TIB [4] [nmol/g] | Concentration of Ornithine in the TIB [4] [nmol/g] | protein concentrations in the TIB [5] | fractional protein synthesis rate (FSR) in the Tibialis muscle ([6]; compared with the other groups (FIG. 5A)) | absolute protein synthesis rate (ASR) in the Tibialis muscle ([6]; CIT vs R and AANE, p<0.05 (FIG. 5B))
N=C(N)NCCC[C@H](N)C(=O)O [ARG, L-arginine, reference compound] | approximately 17 g | increase the concentration of arginine in the plasma compared with the control |  |  |  |  |  |  |  |  |  | 
NC(=O)NCCC[C@H](N)C(=O)O [CIT, L-citrulline] | approximately 21 g |  | re-establish a nitrogen balance in the animals that have undergone resection, at the same level as that of the control group | 2390 ± 279 | 223 ± 27 | 561 ± 55 | 203 ± 35 | 616 ± 104 | 20 ± 4 | significant increase | does not seem significant | significant increase
